# Molecular target: T1, TLR8 (Homo sapiens, UniProt Q9NR97)
# T1 construct: lymphocytes, monocytes and dendritic cells that express TLR7, TLR8 and TLR9; endogenous in cells; host or cells: human PBMCs from healthy donors
# T1 sequence (Q9NR97 27-1041): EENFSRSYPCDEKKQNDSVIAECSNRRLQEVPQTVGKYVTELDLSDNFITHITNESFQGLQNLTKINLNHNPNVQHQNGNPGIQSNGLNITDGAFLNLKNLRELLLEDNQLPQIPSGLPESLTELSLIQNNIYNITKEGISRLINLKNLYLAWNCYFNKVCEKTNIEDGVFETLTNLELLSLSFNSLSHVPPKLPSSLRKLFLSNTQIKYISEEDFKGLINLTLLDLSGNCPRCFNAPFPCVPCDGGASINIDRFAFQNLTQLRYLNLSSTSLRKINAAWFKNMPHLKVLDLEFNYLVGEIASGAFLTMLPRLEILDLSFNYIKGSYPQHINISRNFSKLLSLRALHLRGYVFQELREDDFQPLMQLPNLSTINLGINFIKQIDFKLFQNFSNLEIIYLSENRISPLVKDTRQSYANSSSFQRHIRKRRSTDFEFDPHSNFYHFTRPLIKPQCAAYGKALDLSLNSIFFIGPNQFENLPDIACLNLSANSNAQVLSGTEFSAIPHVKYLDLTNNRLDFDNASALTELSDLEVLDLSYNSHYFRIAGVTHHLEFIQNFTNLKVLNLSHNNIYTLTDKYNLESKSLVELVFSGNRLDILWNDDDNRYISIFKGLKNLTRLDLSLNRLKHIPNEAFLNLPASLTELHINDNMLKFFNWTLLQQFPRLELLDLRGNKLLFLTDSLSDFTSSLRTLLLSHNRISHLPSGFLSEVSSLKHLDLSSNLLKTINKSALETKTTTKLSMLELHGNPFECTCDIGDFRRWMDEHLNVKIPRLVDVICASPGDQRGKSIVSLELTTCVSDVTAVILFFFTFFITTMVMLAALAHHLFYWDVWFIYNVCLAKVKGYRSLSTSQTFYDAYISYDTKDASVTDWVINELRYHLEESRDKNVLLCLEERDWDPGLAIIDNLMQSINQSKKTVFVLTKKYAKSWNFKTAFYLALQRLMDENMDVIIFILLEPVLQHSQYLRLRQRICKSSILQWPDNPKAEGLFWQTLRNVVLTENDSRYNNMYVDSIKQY
# Test: TLR8 human PBMC cell-based assay, TLR8 agonist Compound A stimulation, cytokine (TNFa and IL12p40) readout
# Settings: human PBMCs, Compound A 800 nM, 6 hours; Table 26; read-out: TLR-8 EC50
# Description: Cryopreserved human PBMCs from healthy donors were thawed and resuspended in RPMI-1640 media with L-glutamine (Corning) supplemented with 10% Fetal Bovine Serum (Hyclone) and 1X Penicillin-Streptomycin (Corning). After counting, the cell density was adjusted to 2 million cells/ml and incubated for 1 hour at 37° C., 5% CO2 for recovery. Following the recovery, the cells were plated by adding 50p per well (100,000 cells) to 384-well cell culture plates (Greiner) containing 250nl of test antagonists in 100% DMSO per well, in a 10 points dose response in quadruplicates. PBMCs were incubated in the presence of antagonists for one hour at 37° C., 5% CO2 before being stimulated with TLR8 agonist. Compound A (Gilead Sciences, U.S. Pat. No. 10,285,990) was used as the TLR8 agonist at a final concentration of 800 nM. PBMCs were incubated in the presence of antagonist and the TLR8 agonist for an additional 6 hours at 37° C., […]. At the end of the incubation, the cell culture plates were centrifuged at 500 g for 5 min, and the cell culture supernatant was collected. The level of cytokines (TNFa and IL12p40) in the supernatant was measured by electrochemiluminescence immunoassays (Mesoscale Discovery) following manufacturer's recommended protocols. The level of cytokine measured was plotted against the antagonist concentration and fitted to a sigmoidal function to determine the EC50, which are shown below in Table 11.
row,Structure (SMILES),EC50 [nM]
1,Cc1c(-c2cc(C)c3ncnn3c2)[nH]c2cc(-c3ccc(N4CCNCC4)nc3)ccc12 [Example 71],35.9
2,"Cc1cc(-c2[nH]c3cc(C4CCNCC4)ccc3c2C)cc(C)n1 [Example 48, 2-(2,6-dimethylpyridin-4-yl)-3-methyl-6-(piperidin-4-yl)-1H-indole]",570
3,CCc1c(-c2cc(OC)c3ncnn3c2)[nH]c2cc(-c3ccc(N4CCNCC4)nc3)ccc12 [Example 169],3.35
4,Cc1cc(-c2[nH]c3cc(C4CCNCC4)ccc3c2C(C)C)cn2ncnc12 [Example 55],9.08
5,"CCc1c(-c2cc(C)c3ncnn3c2)[nH]c2cc(-c3ccc(N4CCNCC4)nc3)ccc12 [Example 167, 6-(3-ethyl-6-(6-(piperazin-1-yl)pyridin-3-yl)-1H-indol-2-yl)-8-methyl-[1,2,4]triazolo[1,5-a]pyridine]",3.75
6,"Cc1cc(-c2[nH]c3cc(-c4ccc(N5CCN(CCO)CC5)nc4)ccc3c2C)cc(C)n1 [Example 37, 2-(4-(5-(2-(2,6-dimethylpyridin-4-yl)-3-methyl-1H-indol-6-yl)pyridin-2-yl)piperazin-1-yl)ethan-1-ol]",631
7,"Cc1cc(-c2[nH]c3cc(-c4ccc(N5CCNCC5)nc4)ccc3c2C)cc(C)n1 [Example 1, 2-(2,6-dimethylpyridin-4-yl)-3-methyl-6-(6-(piperazin-1-yl)pyridin-3-yl)-1H-indole]",770
8,Cc1cc(-c2[nH]c3cc(-c4ccc(N5CCNCC5)nc4)ccc3c2C2CC2)cn(C)c1=O [Example 165],8.46

# Molecular target: cloned hERG potassium channel encoded by the KCNH2 gene (Homo sapiens, UniProt Q12809)
# Test: hERG FASTPatch assay (QPatch patch clamp, HEK293T cells)
# Assay type: cell-based
# Settings: HEK293T cells, 1, 3, 10 and 30 uM, room temperature; Table 27
# Description: The FASTPatch® Assay (Charles River) was used to examine the in vitro effects of the compounds provided herein on the cloned hERG potassium channel encoded by the KCNH2 gene and stably expressed in HEK293T cells. Vehicle, test and control article formulations were prepared by diluting DMSO stock solutions in HB-PS (HEPES-buffered physiological saline solution) and were delivered to cells via the QPatch robot pipetting system to a final concentration of 0.3% DMSO. Test compound final concentrations of 1, 3, 10 and 30 uM were applied to cells (n >3, where n=the number of cells/concentration) in ascending order in at least three minute intervals separated by solution exchange. The positive control, 50 nM cisparide, was applied in the same manner. Cell membrane currents were recorded at room temperature with up to 48 parallel patch clamp amplifiers in the QPatch HT® or QPatch HTX® system, and only cells with validated whole-cell recordings (seal resistance >200 MQ and leak current <25% channel current) were used. Onset and block of hERG current was measured using a stimulus voltage pattern consisting of a 500 ms prepulse to −40 mV, a 2-second activating pulse to +40 mV, followed by a 2-second test pulse to −40 mV. The pulse pattern was repeated continuously at 10-second intervals from a holding potential of −80 mV. % Block={1-1/[1+([Test]/IC50)^N]}*100% Where [Test] is the concentration of test article, IC50 is the concentration of the test article producing half-maximal inhibition, N is the Hill coefficient and % Block is the percentage of current inhibited at each concentration of the test article. Nonlinear least squares fits will be solved with the Solver add-in for Excel 2000 or later (Microsoft, Redmon, WA). TurboSol analysis for test compound solubility was performed for each concentration tested using a Nephelostar reader measuring light scatter from a 635 nm laser source. Based on validation experiments, light scatter above four times the background level was considered an indication of the presence of particles in suspension.
# Sequence of cloned hERG potassium channel encoded by the KCNH2 gene (Q12809 whole entry): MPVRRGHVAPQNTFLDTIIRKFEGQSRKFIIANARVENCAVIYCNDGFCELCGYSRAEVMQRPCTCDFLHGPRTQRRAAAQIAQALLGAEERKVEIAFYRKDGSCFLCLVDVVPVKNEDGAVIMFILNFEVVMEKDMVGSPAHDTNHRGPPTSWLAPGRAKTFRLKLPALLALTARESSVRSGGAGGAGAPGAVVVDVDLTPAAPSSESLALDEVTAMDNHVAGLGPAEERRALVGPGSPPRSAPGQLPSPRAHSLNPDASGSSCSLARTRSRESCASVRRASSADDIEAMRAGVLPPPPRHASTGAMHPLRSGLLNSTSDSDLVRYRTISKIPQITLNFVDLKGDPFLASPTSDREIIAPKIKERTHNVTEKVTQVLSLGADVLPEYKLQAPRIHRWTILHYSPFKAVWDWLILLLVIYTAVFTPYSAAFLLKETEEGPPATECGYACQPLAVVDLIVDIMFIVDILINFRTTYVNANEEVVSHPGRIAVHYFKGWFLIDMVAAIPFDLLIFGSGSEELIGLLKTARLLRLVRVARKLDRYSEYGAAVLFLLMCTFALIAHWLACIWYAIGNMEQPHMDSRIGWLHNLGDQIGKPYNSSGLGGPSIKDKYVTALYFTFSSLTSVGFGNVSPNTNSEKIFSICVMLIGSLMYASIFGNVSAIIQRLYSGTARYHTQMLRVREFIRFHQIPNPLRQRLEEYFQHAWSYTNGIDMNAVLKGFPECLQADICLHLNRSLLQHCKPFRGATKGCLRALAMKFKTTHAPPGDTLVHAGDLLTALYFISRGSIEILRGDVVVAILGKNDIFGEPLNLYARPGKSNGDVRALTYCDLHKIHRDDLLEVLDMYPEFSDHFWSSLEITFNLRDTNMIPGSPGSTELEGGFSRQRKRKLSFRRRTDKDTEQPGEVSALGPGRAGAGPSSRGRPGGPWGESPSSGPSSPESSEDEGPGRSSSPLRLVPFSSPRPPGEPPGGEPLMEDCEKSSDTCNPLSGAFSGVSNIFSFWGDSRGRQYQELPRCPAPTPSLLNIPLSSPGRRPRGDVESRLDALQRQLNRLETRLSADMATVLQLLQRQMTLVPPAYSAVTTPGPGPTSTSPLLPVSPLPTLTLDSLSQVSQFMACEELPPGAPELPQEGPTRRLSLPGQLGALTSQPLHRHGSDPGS
row,Structure (SMILES),IC50 [nM]
1,Cc1cc(-c2[nH]c3cc(C4CCCNC4)ccc3c2C)cc(C)n1 (stereo not shown) [Example 53],19600
2,"Cc1cc(-c2[nH]c3cc(-c4ccc(N5CCNCC5)nc4)ccc3c2C)cc(C)n1 [Example 1, 2-(2,6-dimethylpyridin-4-yl)-3-methyl-6-(6-(piperazin-1-yl)pyridin-3-yl)-1H-indole]",≥ 30000
